Earlier results on 1 molecule are cited in patent publication US20150044284A1, “DOSAGE FORM COMPRISING A STEROID 5-ALPHA-REDUCTASE INHIBITOR AND AN ALPHA BLOCKER, PROCESS FOR PREPARING OF A DOSAGE FORM, USE OF DOSAGE FORM, METHOD FOR THE TREATMENT OR PROPHYLAXIS OF A DISEASE OR CONDITION MEDIATED BY ANDROGEN” (EMS S.A., priority 2013, published 2015).

The structures appear in SMILES notation.

The test system of series [1] is DHT (dihydrotestosterone). The conditions noted are these: after only two weeks.

For the molecule `C[C@]12C=CC(=O)N[C@@H]1CC[C@@H]1[C@@H]2CC[C@]2(C)[C@@H](C(=O)Nc3cc(C(F)(F)F)ccc3C(F)(F)F)CC[C@@H]12` [dutasteride], the Solubility in water entry is listed as “completely insoluble in water”. In addition, the “Reduction of DHT levels” value in series [1] was 90%.
